Here are results for 1 compound from patent publication US20150203498A1, “INHIBITORS OF PHOSPHODIESTERASE 10 ENZYME” (Janssen Pharmaceutica NV, priority 2012, published 2015).

The term melting point denotes the temperature, or range, at which the solid turns liquid. As a reminder, the ED50 is the dose at which the effect has come halfway, by size or by number of responders.

Where “and” joins values, the source holds several entries; their conditions need not be identical. Identical values can stand only once. Like-named read-outs stand apart in the source and are kept apart here.

One data set addresses T1, hPDE10A2 (Homo sapiens, UniProt Q9Y233).
T1 construct: made in house; host or cells: Sf9 insect cells (baculovirus)
Put plainly: In vitro assay PDE10A, human recombinant enzyme (SPA, 3H-cAMP). It is filed as biochemical. The following applies: -log IC50 expressed in mol/L; 60 nM cAMP; read-out: PDE10A2 pIC50 - human enzyme (converted). As to the method:
(§1) Human or rat recombinant PDE10A (hPDE10A2 or rPDE10A2) was expressed in Sf9 cells using a recombinant hPDE10A or rPDE10A baculovirus construct. Cells were harvested after 48 h of infection and the hPDE10A or rPDE10A protein was purified by metal chelate chromatography on Ni-sepharose 6FF. Tested compounds were dissolved and diluted in 100% DMSO to a concentration 100 fold of the final concentration in the assay. Compound dilutions (0.4 μl) were added in 384 well plates to 20 μl of incubation buffer (50 mM Tris pH 7.8, 8.3 mM MgCl2, 1.7 mM EGTA). 10 μl of hPDE10A or rPDE10A enzyme in incubation buffer was added and the reaction was started by addition of 10 μl substrate to a final concentration of 60 nM cAMP and 0.008 μCi ^3H-cAMP. The reaction was incubated for 60 min. at RT. After incubation, the reaction was stopped with 20 μl of stop solution consisting of 17.8 mg/ml PDE SPA (scintillation proximity assay) beads. After sedimentation of the beads during 30 min. the radioactivity was measured in a Perkin Elmer Topcount scintillation counter and results were expressed as cpm. For blanc values the enzyme was omitted from the reaction and replaced by incubation buffer. Control values were obtained by addition of a final concentration of 1% DMSO instead of compound. A best fit curve was fitted by a minimum sum of squares method to the plot of % of control value substracted with blanc value versus compound concentration and the half maximal inhibitory concentration (IC50) value was derived from this curve.

A short description of data set [1]: Plasma protein binding by equilibrium dialysis. It is filed as in vitro ADME, human. The note with it: male, human, plasma, pH 7.17, human plasma. How it is done:
(§2) The plasma protein binding and blood distribution was investigated in healthy human subjects. Fresh blood was collected and centrifugated (approximately 1700 g for 10 min, room temperature, Hettich Rotixa AP centrifuge). The experiment was started within 4 hours after blood collection.
(§3) Individual blank plasma samples from three healthy male subjects, tested in duplicate, were fortified with compound la or compound lb at different concentrations (see Table 5). Plasma samples were spiked with 10 μl spike solution per ml of sample (1% ethanol (v/v)).
(§4) Fortified plasma was subjected to equilibrium dialysis (ED), for 4 h against a 0.067 M phosphate buffer, pH 7.17 at 37° C. in a Dianorm system with identical macro-1 Teflon cells and Spectra/Por® RC 2 dialysis membranes (MW cut-off 12-14 kDa). After dialysis, the contents of the two compartments of the dialysis cells were collected separately. The buffer samples were diluted with 1 mL of 5% Bovine Serum Albumin in a Phosphate buffer 0.05M, pH 7.5.
(§5) The plasma samples (before and after equilibrium dialysis) and buffer samples were analysed for compound la or compound lb using a qualified chiral LC-MS/MS assay on a API4000 mass spectrometer (Applied Biosystems).
(§6) The fraction of the unbound test compound (fu) was calculated as the ratio of the unbound concentration (Cu) in the buffer compartment to the total concentration (CED) in the protein compartment of the dialysis cells. The percentage of the free test compound was calculated as […]
In general terms: Equilibrium dialysis compares concentrations on both sides of a semipermeable membrane.

Another data set relates to plasma proteins. The data set can be described thus: Plasma protein binding by equilibrium dialysis. It is filed as in vitro ADME, human. The following applies: human plasma; for Free fraction, Average per subject: average of duplicate per subject; for Free fraction: single determinations, subjects 1-3 in duplicate, equilibrium dialysis 4 h, 37° C. How it is done:
as §2, §3, §4, §5, §6

The next data set addresses T2, rPDE10A2 (Rattus norvegicus, UniProt Q9QYJ6).
T2 construct: made in house; host or cells: Sf9 insect cells (baculovirus)
T2 sequence (Q9QYJ6 1-794): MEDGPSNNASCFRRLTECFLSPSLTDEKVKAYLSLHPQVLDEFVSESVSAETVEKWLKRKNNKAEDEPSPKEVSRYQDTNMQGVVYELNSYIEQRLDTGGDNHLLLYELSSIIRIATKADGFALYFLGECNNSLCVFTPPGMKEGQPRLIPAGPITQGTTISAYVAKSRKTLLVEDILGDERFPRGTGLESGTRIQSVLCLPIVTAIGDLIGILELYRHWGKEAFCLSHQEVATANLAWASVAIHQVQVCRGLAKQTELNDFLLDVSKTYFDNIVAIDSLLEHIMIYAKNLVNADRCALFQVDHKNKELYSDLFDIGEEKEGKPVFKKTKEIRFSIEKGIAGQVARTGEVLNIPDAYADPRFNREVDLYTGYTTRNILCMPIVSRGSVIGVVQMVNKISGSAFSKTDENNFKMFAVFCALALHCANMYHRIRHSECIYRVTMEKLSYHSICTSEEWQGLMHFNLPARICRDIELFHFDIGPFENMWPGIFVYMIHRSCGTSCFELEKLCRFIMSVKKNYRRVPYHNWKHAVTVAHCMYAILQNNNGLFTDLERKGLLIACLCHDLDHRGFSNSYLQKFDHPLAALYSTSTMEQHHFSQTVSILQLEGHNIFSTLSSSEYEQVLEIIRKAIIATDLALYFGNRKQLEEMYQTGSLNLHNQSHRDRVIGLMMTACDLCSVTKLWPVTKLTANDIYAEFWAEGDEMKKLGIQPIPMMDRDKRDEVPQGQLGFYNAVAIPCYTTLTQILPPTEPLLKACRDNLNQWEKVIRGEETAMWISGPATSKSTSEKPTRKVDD
The data set can be described thus: In vitro assay PDE10A, rat recombinant enzyme (SPA, 3H-cAMP). It is filed as biochemical. The note with it: -log IC50 expressed in mol/L; 60 nM cAMP; read-out: PDE10A2 pIC50 - rat enzyme (converted). How it is done:
as §1

Data set [2] concerns apomorphine-induced stereotypy. The data set can be described thus: Apomorphine-induced stereotypy in rats (APO). It is filed as in vivo, rat. The following applies: Rattus norvegicus, iv, apomorphine 1.0 mg/kg i.v., 1 hour pre-treatment with test compound, dose at which 50% of animals show the effect. As to the method:
Apomorphine (1.0 mg/kg, i.v.)-induced stereotypy (compulsive sniffing, licking, chewing) was scored every 5 min. over the first hour after injection of apomorphine, following a 1 hour interval pre-treatment with the test compound. The score system was: (3) pronounced, (2) moderate, (1) slight, and (0) absent. Criteria for drug-induced inhibition of stereotypy: fewer than 6 scores of 3 (0.16% false positives), fewer than 6 scores of 2 (0.0% false positives), or fewer than 7 scores of 1 (0.81% false positives).

The mark [3] stands for this setting: average of duplicate per subject, read-out: Free fraction, Average per subject.
Where [4] appears, read: single determinations, subjects 1-3 in duplicate, equilibrium dialysis 4 h, 37° C., read-out: Free fraction.

T1 sequence (Q9Y233 267-1055): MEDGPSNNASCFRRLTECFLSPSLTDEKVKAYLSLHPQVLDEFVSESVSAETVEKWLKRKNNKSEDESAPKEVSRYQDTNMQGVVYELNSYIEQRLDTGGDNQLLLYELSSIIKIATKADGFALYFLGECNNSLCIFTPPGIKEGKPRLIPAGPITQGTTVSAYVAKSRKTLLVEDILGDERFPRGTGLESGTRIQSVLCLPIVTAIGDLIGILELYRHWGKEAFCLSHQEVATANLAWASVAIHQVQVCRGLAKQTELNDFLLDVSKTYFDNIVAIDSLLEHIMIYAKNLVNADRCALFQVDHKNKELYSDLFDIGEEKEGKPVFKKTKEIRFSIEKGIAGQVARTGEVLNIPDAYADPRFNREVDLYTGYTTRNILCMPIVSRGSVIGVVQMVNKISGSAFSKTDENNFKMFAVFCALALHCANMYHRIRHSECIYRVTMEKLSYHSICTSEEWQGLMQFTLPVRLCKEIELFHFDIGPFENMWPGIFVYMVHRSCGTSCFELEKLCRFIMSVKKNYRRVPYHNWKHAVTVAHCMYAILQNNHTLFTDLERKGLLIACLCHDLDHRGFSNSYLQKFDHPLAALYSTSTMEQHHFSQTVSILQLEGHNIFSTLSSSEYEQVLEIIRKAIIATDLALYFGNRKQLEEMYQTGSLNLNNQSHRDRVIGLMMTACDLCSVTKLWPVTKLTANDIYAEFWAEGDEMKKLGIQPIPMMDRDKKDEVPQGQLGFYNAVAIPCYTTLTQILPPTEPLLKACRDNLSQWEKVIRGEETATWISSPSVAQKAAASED

`COCC(O)c1ccc(-c2c(C)nc3c(N4CCOCC4)ccnn23)cn1` (single isomer, unassigned) [Compound 1a] registered a melting point of 134.9 °C. For the same compound, the IC50 at hPDE10A2 is 75.9 nM. In data set [1] (setting [3]), the fraction unbound at 4 h, 0.1 μg/ml was 0.481 and the fraction unbound at 4 h, 13 μg/ml was found to be 0.448. Besides, in data set [1] (setting [4]), the fraction unbound at 4 h, 0.1 μg/ml amounted to 0.468 and the fraction unbound at 4 h, 13 μg/ml came to 0.446. Also, the fraction unbound at 4 h in data set [1] (0.1 and 13 μg/ml pooled, three subjects in duplicate, read-out: Free fraction, Average (S.D.) (n = 12)) amounted to 0.469. For the same compound, in the data set with plasma proteins (0.1 μg/ml), the “Average percentage of free compound in plasma” value came to 48.3%; the “Free fraction, Average per subject” value is 48.5% and 48.3%; the Free fraction is 50.1% and 47.6% and 48.9% and 47.3%. Moreover, in the data set with plasma proteins (13 μg/ml), the “Average percentage of free compound in plasma” value stood at 45.5%; the “Free fraction, Average per subject” value is 45.4% and 46.2%; the Free fraction was 46.1% and 46.5% and 46.0% and 43.9% and 45.6%. In addition, the “Concentration dependency in the plasma protein binding” value with plasma proteins (within the concentration range tested) was “No relevant concentration dependency”. Also, at rPDE10A2, the IC50 was 47.9 nM. In data set [2], the ED50 came to 1.2 mg/kg.
